Laboratory results published in patent US8859584B2, “TRPV1 antagonists” (AbbVie Inc., priority 2011, dated 2014).

Tests used:
human TRPV1 [1] = molecular target: T1, human TRPV1 (Homo sapiens, UniProt Q8NER1); test: Capsaicin Activation Assay (FLIPR intracellular Ca2+, recombinant HEK293 cells); format: cell-based; conditions: recombinant HEK293 cells expressing hTRPV1; 50 nM capsaicin; read-out: human TRPV1 capsaicin IC50
T1 construct: expressed in transfected cells
Experimental: (i) Capsaicin Activation Assay
Dulbecco's modified Eagle medium (DMEM) (with 4.5 mg/mL glucose) and fetal bovine serum were obtained from Hyclone Laboratories, Inc. (Logan, Utah). Dulbecco's phosphate-buffered saline (DPBS) (with 1 mg/mL glucose and 3.6 mg/l Na pyruvate, without phenol red), L-glutamine, hygromycin B, and Lipofectamine® were obtained from Life Technologies (Grand Island, N.Y.). G418 sulfate was obtained from Calbiochem-Novabiochem Corp. (San Diego, Calif.). Capsaicin (8-methyl-N-vanillyl-6-nonenamide) was obtained from Sigma-Aldrich, Co. (St. Louis, Mo.). Fluo-4 AM (N-[4-[6-[(acetyloxy)-methoxy]-2,7-difluoro-3-oxo-3H-xanthen-9-yl]-2-[2-[2-[bis[2-[(acetyloxy)methoxy]-2-oxyethyl]amino]-5-methylphenoxy]ethoxy]phenyl]-N-[2-[(acetyloxy)methoxy]-2-oxyethyl]-glycine, (acetyloxy)methyl ester) was purchased from Molecular Probes (Eugene, Oreg.).
(§1) Expression plasmids encoding the hTRPV1 cDNA were transfected into HEK293 cells using Lipofectamine®. Forty-eight hours after transfection, the neomycin-resistant cells were selected with growth medium containing 800 μg/mL Geneticin (Life Technologies, formerly Gibco BRL). Surviving individual colonies were isolated and screened for TRPV1 activity. Cells expressing recombinant TRPV1 were maintained at 37° C. in DMEM containing 4 mM L-glutamine, 300 μg/mL G418 (Calbiochem) and 10% fetal bovine serum under a humidified 5% CO2 atmosphere.
The functional activity of compounds at the TRPV1 receptor was determined by measurement of intracellular Ca^2+ levels ([Ca^2+]i) using the Fluorescence Imaging Plate Reader (FLIPR)TETRA®. All compounds were tested over a 12-point one-third-log concentration range. Compound stocks, 10 mM, were prepared in DMSO, and diluted serially across a 384-well plate using a Bravo BenchCel workstation (Agilent Technologies, Santa Clara, Calif.). A stock concentration of capsaicin (10 mM) was made in DMSO, and diluted in DPBS to a final concentration of 200 nM (4×). On the day prior to the experiment, the recombinant HEK293 cells expressing human TRPV1 (hTRPV1) were removed from tissue culture flasks and plated in growth medium into black-walled clear-bottom 384-well Biocoat™ poly-D-lysine assay plates (BD Biosciences, Bedford, Mass.) using a Multidrop® dispenser (ThermoScientific, Waltham, Mass.). […] The plated cells were incubated for 90-120 minutes in the dark at room temperature and then test compound was added to each well. Three minutes later, 200 nM capsaicin (4×) solution was added to each well in an amount sufficient to provide a final assay volume of 80 μL and capsaicin concentration of 50 nM. Fluorescence readings were made at 1 to 5 second intervals over the course of the experimental run. The peak increase in relative fluorescence units (minus baseline) was calculated, and expressed as a percentage of the 50 nM capsaicin (control) response.

human TRPV1 [2] = molecular target: T1, human TRPV1; test: Acid Activation Assay (pH 5.0, FLIPR intracellular Ca2+, recombinant HEK293 cells); format: cell-based; conditions: percentage of maximal pH 5.0-induced response remaining; HEK293 hTRPV1; max concentration 37.5 μM
Experimental: (ii) Acid Activation Assay
Dulbecco's modified Eagle's medium (DMEM) with 4.5 mg/mL D-glucose, fetal bovine serum, L-glutamine, and 2-morpholinoethanesulfonic acid (MES) were purchased from Sigma-Aldrich Co. (St. Louis, Mo.). […] The FLIPR® Calcium 4 assay kit was purchased from Molecular Devices (Sunnyvale, Calif.).
as §1
The functional activity of compounds at the TRPV1 receptor was determined by measurement of intracellular Ca^2+ levels ([Ca^2+]i) using the Fluorescence Imaging Plate Reader (FLIPR)TETRA®. […] Compound stocks, 10 mM, were prepared in DMSO, and diluted serially across a 384-well plate using a Bravo BenchCel workstation (Agilent Technologies, Santa Clara, Calif.). On the day prior to the experiment, the recombinant HEK293 cells expressing human TRPV1 (hTRPV1) were removed from tissue culture flasks and plated in growth medium into black-walled clear-bottom 384-well Biocoat™ poly-D-lysine assay plates (BD Biosciences, Bedford, Mass.) using a Multidrop® dispenser (ThermoScientific, Waltham, Mass.). […] The plated cells were incubated for 90-120 min in the dark at 25° C. The test compounds dissolved in DMSO were then added to the plates using an Agilent Bravo workstation (Agilent Technologies Inc., Santa Clara, Calif.). Three minutes later, a pH 5.0 solution was added to each well. Reagents were delivered at a rate of 40 μL/sec, and the final assay volume was 80 μL. Acidic pH solutions were prepared by titration of DPBS/MES with 1 N HCl. The intensity of the fluorescence was captured and digitally transferred to an interfaced PC. The maximum peak measured for the concentration range tested was used to calculate the corresponding peak increase in fluorescence over baseline (relative fluorescence units) which was expressed as the percentage (max % remain) of the maximal pH 5.0-induced response.

T1 sequence (Q8NER1 whole entry): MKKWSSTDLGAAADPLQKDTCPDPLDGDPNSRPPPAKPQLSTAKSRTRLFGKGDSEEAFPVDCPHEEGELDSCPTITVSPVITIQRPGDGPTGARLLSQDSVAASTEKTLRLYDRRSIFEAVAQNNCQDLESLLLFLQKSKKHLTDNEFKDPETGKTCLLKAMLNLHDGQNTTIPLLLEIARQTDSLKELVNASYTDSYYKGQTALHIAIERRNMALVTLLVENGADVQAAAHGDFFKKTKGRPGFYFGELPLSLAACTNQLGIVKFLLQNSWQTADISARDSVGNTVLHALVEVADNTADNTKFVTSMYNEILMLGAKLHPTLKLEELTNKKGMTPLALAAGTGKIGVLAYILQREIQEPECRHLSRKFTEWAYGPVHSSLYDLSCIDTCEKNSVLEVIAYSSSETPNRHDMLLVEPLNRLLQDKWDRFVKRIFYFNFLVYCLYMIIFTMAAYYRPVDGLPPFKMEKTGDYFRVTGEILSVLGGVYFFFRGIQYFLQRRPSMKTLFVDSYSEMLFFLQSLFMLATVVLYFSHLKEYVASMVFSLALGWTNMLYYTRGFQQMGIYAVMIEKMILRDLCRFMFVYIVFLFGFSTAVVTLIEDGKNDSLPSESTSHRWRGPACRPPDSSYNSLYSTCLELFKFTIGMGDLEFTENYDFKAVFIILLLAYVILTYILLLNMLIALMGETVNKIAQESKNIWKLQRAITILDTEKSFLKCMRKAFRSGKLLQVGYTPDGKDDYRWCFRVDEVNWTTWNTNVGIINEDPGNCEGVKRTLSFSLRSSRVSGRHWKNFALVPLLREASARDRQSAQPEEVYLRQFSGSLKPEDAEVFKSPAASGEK

Row | SMILES | IC50 (human TRPV1 [1]) | human TRPV1 H+ (max % remain) (human TRPV1 [2])
1 | CC1(C)C[C@@H](NC(=O)Nc2cccc3c2C[C@@H](O)C3)c2ccc(Cl)cc2O1 [Example 85, 1-[(4R)-7-chloro-2,2-dimethyl-3,4-dihydro-2H-chromen-4-yl]-3-[(2S)-2-hydroxy-2,3-dihydro-1H-inden-4-yl]urea] | 24 nM | 12%
2 | CC1(C)C[C@@H](NC(=O)Nc2cccc3c2C[C@H](O)C3)c2ccccc2O1 [Example 17, 1-[(4R)-2,2-dimethyl-3,4-dihydro-2H-chromen-4-yl]-3-[(2R)-2-hydroxy-2,3-dihydro-1H-inden-4-yl]urea] | 240 nM | 82%
3 | CC1(C)C[C@@H](NC(=O)Nc2cccc3c2C[C@H](O)C3)c2ccccc21 [Example 63, 1-[(1R)-3,3-dimethyl-2,3-dihydro-1H-inden-1-yl]-3-[(2R)-2-hydroxy-2,3-dihydro-1H-inden-4-yl]urea] | 140 nM | 86%
4 | COc1ccc(C2COc3ccccc3C2NC(=O)Nc2cccc3c2CC(O)C3)cc1 (centres unmarked) [Example 116, 1-(2-hydroxy-2,3-dihydro-1H-inden-4-yl)-3-[3-(4-methoxyphenyl)-3,4-dihydro-2H-chromen-4-yl]urea] | 4100 nM | 94%
5 | CC1(CF)C[C@@H](NC(=O)Nc2cccc3c2C[C@H](O)C3)c2ccc(Cl)cc2O1 (stereo partly drawn) [Example 67, 1-[(4R)-7-chloro-2-(fluoromethyl)-2-methyl-3,4-dihydro-2H-chromen-4-yl]-3-[(2R)-2-hydroxy-2,3-dihydro-1H-inden-4-yl]urea] | 17 nM | 72%
6 | O=C(Nc1cccc2c1C[C@@H](O)C2)N[C@H]1CC2(CCC2)Oc2ccc(F)cc21 [Example 102, 1-[(4S)-6-fluoro-3,4-dihydrospiro[chromene-2,1′-cyclobutan]-4-yl]-3-[(2S)-2-hydroxy-2,3-dihydro-1H-inden-4-yl]urea] | 2800 nM | 63%
7 | O=C(Nc1cccc2c1C[C@H](O)C2)N[C@@H]1CCOc2c1cccc2C(F)(F)F [Example 18, 1-[(2R)-2-hydroxy-2,3-dihydro-1H-inden-4-yl]-3-[(4R)-8-(trifluoromethyl)-3,4-dihydro-2H-chromen-4-yl]urea] | 26 nM | 58%
8 | O=C(Nc1cccc2c1C[C@H](O)C2)N[C@@H]1CC2(CCC2)Oc2cc(C(F)(F)F)ccc21 [Example 42, 1-[(2R)-2-hydroxy-2,3-dihydro-1H-inden-4-yl]-3-[(4R)-7-(trifluoromethyl)-3,4-dihydrospiro[chromene-2,1′-cyclobutan]-4-yl]urea] | 54 nM | 20%
9 | CN1CC[C@@H](NC(=O)Nc2ccc(F)c3c2C[C@H](O)C3)c2ccc(C(F)(F)F)cc21 [Example 148, 1-[(2S)-7-fluoro-2-hydroxy-2,3-dihydro-1H-inden-4-yl]-3-[(4R)-1-methyl-7-(trifluoromethyl)-1,2,3,4-tetrahydroquinolin-4-yl]urea] | 3100 nM | 21%
10 | CC1(C)C[C@@H](NC(=O)Nc2ccc(F)c3c2C[C@@H](O)C3)c2ccc(C(F)(F)F)cc2O1 [Example 160, 1-[(4R)-2,2-dimethyl-7-(trifluoromethyl)-3,4-dihydro-2H-chromen-4-yl]-3-[(2R)-7-fluoro-2-hydroxy-2,3-dihydro-1H-inden-4-yl]urea] | 130 nM | 61%
11 | O=C(Nc1cccc2c1C[C@H](O)C2)N[C@@H]1COc2ccc(Cl)cc2C1 [Example 27, 1-[(3S)-6-chloro-3,4-dihydro-2H-chromen-3-yl]-3-[(2R)-2-hydroxy-2,3-dihydro-1H-inden-4-yl]urea] | 97 nM | 11%
12 | CC1(C)C[C@@H](NC(=O)Nc2cccc3c2C[C@@H](O)C3)c2cccc(C(F)(F)F)c2O1 [Example 34, 1-[(4R)-2,2-dimethyl-8-(trifluoromethyl)-3,4-dihydro-2H-chromen-4-yl]-3-[(2S)-2-hydroxy-2,3-dihydro-1H-inden-4-yl]urea] | 12 nM | 18%
13 | C[C@]1(CF)C[C@@H](NC(=O)Nc2c(F)ccc3c2C[C@@H](O)C3)c2ccc(Cl)cc2O1 [Example 100, 1-[(2R,4R)-7-chloro-2-(fluoromethyl)-2-methyl-3,4-dihydro-2H-chromen-4-yl]-3-[(2S)-5-fluoro-2-hydroxy-2,3-dihydro-1H-inden-4-yl]urea] | 33 nM | 30%
14 | O=C(Nc1cccc2c1CC(O)C2)NC1CC2(CCCCC2)Oc2ccccc21 (centres unmarked) [Example 123, 1-(3,4-dihydrospiro[chromene-2,1′-cyclohexan]-4-yl)-3-(2-hydroxy-2,3-dihydro-1H-inden-4-yl)urea] | 140 nM | 61%
15 | O=C(Nc1cccc2c1C[C@@H](O)C2)N[C@@H]1CC(CF)(CF)Oc2c1ccc(Cl)c2F [Example 81, 1-[(4R)-7-chloro-8-fluoro-2,2-bis(fluoromethyl)-3,4-dihydro-2H-chromen-4-yl]-3-[(2S)-2-hydroxy-2,3-dihydro-1H-inden-4-yl]urea] | 59 nM | 11%
16 | O=C(Nc1cccc2c1C[C@H](O)C2)N[C@@H]1CCc2cc(OC(F)(F)F)ccc21 [Example 106, 1-[(2R)-2-hydroxy-2,3-dihydro-1H-inden-4-yl]-3-[(1R)-5-(trifluoromethoxy)-2,3-dihydro-1H-inden-1-yl]urea] | 56 nM | 26%
17 | O=C(Nc1cccc2c1C[C@@H](O)C2)N[C@@H]1CCOc2c(OC(F)(F)F)cccc21 [Example 73, 1-[(2S)-2-hydroxy-2,3-dihydro-1H-inden-4-yl]-3-[(4R)-8-(trifluoromethoxy)-3,4-dihydro-2H-chromen-4-yl]urea] | 25 nM | 18%
18 | COCC1(COC)C[C@@H](NC(=O)Nc2cccc3c2C[C@H](O)C3)c2cc(F)ccc2O1 [Example 68, 1-[(4R)-6-fluoro-2,2-bis(methoxymethyl)-3,4-dihydro-2H-chromen-4-yl]-3-[(2R)-2-hydroxy-2,3-dihydro-1H-inden-4-yl]urea] | 970 nM | 79%
19 | CC(C)(C)c1ccc2c(c1)CC[C@H]2NC(=O)Nc1cccc2[nH]ncc12 [C, reference compound] |  | 1%
20 | Cc1nc(Nc2cccc3c2C[C@H](O)CC3)oc1-c1ccc(C(F)(F)F)cc1 [Example D, reference compound] |  | 3%
